Data on seven molecules can be found in patent US12496350B2 (Ohio State Innovation Foundation, priority 2018, dated 2025).

One data set concerns HeLa cells. Put plainly: Cellular uptake efficiency by flow cytometry. Type of data set: cell-based. The conditions noted are these: for Uptake (% rel.): HeLa cells, 5 μM, 2 h, relative to CPP9 (100%). The procedure:
(§1) Cellular Uptake Efficiency: HeLa cells were seeded into 12-well cell-culture treated plates at a final density of 15×10^4 cells/well in DMEM supplemented with 10% FBS and 1% penicillin/streptomycin and incubated overnight at 37° ° C. and 5% CO2. After 24 h, the media was aspirated followed by washing the cells three times with warm DPBS. Peptides were diluted to a final concentration of 5 μM in DMEM containing 10% FBS with 1% penicillin/streptomycin, added to each well and then incubated for 2 h at 37° C. and 5% CO2. After 2 h, treatment media was aspirated and the cells were washed three times with ice-cold DPBS. Cells were removed from the plate via treatment with trypsin/EDTA and then harvested in ice-cold DPBS followed by centrifugation at ×300 RCF, 4° C. for 5 min. Cells were resuspended in DPBS and quantified using a BD Biosciences LSR II flow cytometer and gated using FlowJo. Values for uptake are provided as a percentage relative to positive control, CPP9 ([cyclo-fΦRrRrQ]-miniPEG-K[NF]).
as §1, with “Cellular Uptake. HeLa cells” for “Cellular Uptake Efficiency: HeLa cells”, “at 37° C. and” for “at 37° ° C. and”, “37° C. with 5% CO2.” for “37° C. and 5% CO2.”, “centrifugation at 300 g, 4° C.” for “centrifugation at ×300 RCF, 4° C.”, “control, CPP9 ([cyclo-fΦRrRrQ]-miniPEG-K[NF]), which has a 62% cytosolic entry efficiency. PGD97 entered HeLa cells at 60% efficiency relative to CPP9, corresponding to an absolute cytosolic entry efficiency of ˜36% (FIG. 9).” for “control, CPP9 ([cyclo-fΦRrRrQ]-miniPEG-K[NF]).”
On the technique in general: Flow cytometry measures light scatter and fluorescence of single cells or particles in a stream.

The target in data set [1] is T1, CAL PDZ domain (CALP5-His) (Homo sapiens, UniProt Q9HD26).
T1 construct: His
In words: Direct fluorescence polarization binding of labeled peptide, Condition C. The procedure:
Condition C (denoted with superscript ^C): 50 nM labeled peptide was incubated with 2 mM TCEP in PBS at pH 7.4 containing 0.01% Triton-X100. CALP5-His was serially diluted in PBS containing 0.01% Triton-X100 to which was then added the peptide and TCEP solution. This solution was mixed for 1 h at RT then 20 uL was pipetted into 384-well microplates and fluorescence polarization was measured using a TECAN Infinite M1000 plate reader. KD values were calculated using KaleidaGraph v. 3.6 using the equation: […]
(§2) Binding Affinity and Selectivity. The potency and selectivity of inhibitor 29 was first assessed by comparing its binding affinity to the four PDZ domains of CAL, NHERF1, and NHERF2, which are involved in the trafficking of CFTR to and from the plasma membrane. Peptides were labeled with FITC at the N-terminus through a miniPEG linker and tested for binding to various PDZ domains by fluorescence polarization (FP). FITC-labeled peptide (50 nM) was incubated with varying concentrations of PDZ domain in PBS (pH 7.4) containing 0.01% Triton X-100 and 2 mM TCEP for 1 h at room temperature. After 1 h, 20 μL of each sample was pipetted into 384-well black-on-black microplates and fluorescence polarization was measured by using a TECAN Infinite M1000 plate reader. Data was processed using GraphPad PRISM ver. 8.0.
(In general: Polarisation of emitted light reports the rotation of a fluorescent probe.)

Data set [2] concerns the target T1, CAL PDZ domain (CALP5-His). Put plainly: FP-based competition assay, Condition B (probe FAM-[…]-OH). The data set is classed as binding. The conditions noted are these: for IC50: 500 nM CALP5-His, 5 mM DTT. The procedure: Serial dilutions of each competitor peptide were prepared in PBS and the incubation solution was added to each. The combined solutions were gently mixed for 1 h at RT after which 20 uL sample was pipetted into 384-well black-on-black microplates and fluorescence polarization was measured using a TECAN Infinite M1000 plate reader. Data was processed to determine IC50 using GraphPad PRISM ver. 6.0.

Another data set addresses T2, NHERF2-PDZ2 (N2P2) (Homo sapiens, UniProt Q15599).
T2 construct: PDZ1 (N2P1), and NHERF2-PDZ2 domains (N2P2)
In words: Direct fluorescence polarization binding of FITC-labeled peptide. The conditions noted are these: 50 nM FITC-labeled peptide, FP. The procedure:
as §2

A further data set addresses T3, NHERF1-PDZ1 (N1P1) (Homo sapiens, UniProt O14745).
T3 sequence (O14745 14-94 limits assumed): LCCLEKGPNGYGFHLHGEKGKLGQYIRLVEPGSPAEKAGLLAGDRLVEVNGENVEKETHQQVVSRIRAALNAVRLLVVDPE
The data set is described as above. The procedure:
as §2

Another data set has as its target T4, NHERF2-PDZ1 (N2P1) (Homo sapiens, UniProt Q15599).
T4 construct: PDZ1 (N2P1), and NHERF2-PDZ2 domains (N2P2)
Described as above. The conditions noted are these: 50 nM FITC-labeled peptide, FP. The procedure:
as §2

A further data set has as its system HCT116 cell spheroids. Put plainly: Intracellular stability by MALDI imaging. Type of data set: in vitro ADME. The conditions noted are these: after 4 or 24 h incubation with PGD97. The procedure: Intracellular Stability. PGD97 ([…]) was added to HCT116 cell spheroids in RPMI-1640 medium supplemented with 10% FBS and 1% penicillin/streptomycin and incubated for 4 or 24 h. After incubation, spheroids were washed 3× with DPBS, quickly frozen, embedded in a solid support, and cryo-sectioned. Prior to analysis, sinapinic acid was sublimed onto individual slides. The sample was imaged using a Bruker ultrafleXtreme MALDI-TOF-TOF and analyzed for the presence of proteolytic degradation fragments. Heatmaps, scaled relative to the most intense signal, were generated for the intact peptide (both 29 and 32) as well as ˜20 potential proteolytic fragments at each time point. […] A degradation fragment (#1) corresponding to proteolytic cleavage between Thr and Arg (FIG. 8B) was observed, but none of the other potential degradation products were observed. […] Most importantly, significant concentrations of intact peptide 29 was still present inside the cells after 24 h.

In the next data set the test system is LC3-II. Put plainly: Autophagy in macrophages, western blotting for LC3-II. Type of data set: cell-based, human. The conditions noted are these: 10 μM, ΔF508 CFTR macrophages. The procedure:
Effect on Autophagy in Macrophage. Human primary ΔF508 CFTR macrophages were incubated with 10 μM VX809 (n=1) or 100 nM PGD97 (n=2) for 48 h in complete growth medium supplemented with 10% FBS and 1% penicillin/streptomycin at 37° C. Induction of autophagy was determined via western blotting for autophagy-associated protein LC3-II.
A general note: Immunoblotting shows a protein as a band on a membrane.

A short description of data set [3]: HCT116 cell spheroids in RPMI-1640 medium supplemented with 10% FBS and 1% penicillin/streptomycin. The note with it: up to 24 h.
Where [4] appears, read: 50 nM FITC-labeled peptide, FP, read-out: KD (nM) CALP.
[5] abbreviates: 50 nM FITC-labeled peptide, FP, read-out: KD (nM) N1P1.
Where [6] appears, read: Condition B (superscript b): 100 nM probe FAM-ANSRWPTSII-OH.
Setting [7] is: FITC-labeled peptide, FP, read-out: Affinity (KD).

Read-outs that look alike come from different tables or passages of the source. Where a SMILES comes first, the peptide text is derived from it. [ ]: non-standard residue; d: D form. The star is where a group is joined. X1 = O=C(O)c1cc(NC(=S)*)ccc1C1c2ccc(O)cc2Oc2cc(O)ccc21; 2Nal = N[C@@H](Cc1ccc2ccccc2c1)C(=O)O; Bta = N[C@@H](Cc1csc2ccccc12)C(=O)O; Pen = CC(C)(S)[C@H](N)C(=O)O; Tle = CC(C)(C)[C@H](N)C(=O)O; Pip = O=C(O)[C@@H]1CCCCN1; AEEA = NCCOCCOCC(=O)O Bounds are passed on as bounds.

T2 sequence (Q15599 150-230 limits assumed): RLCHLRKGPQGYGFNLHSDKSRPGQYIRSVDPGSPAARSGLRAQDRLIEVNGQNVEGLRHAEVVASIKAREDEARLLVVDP
T4 sequence (Q15599 11-90 limits assumed): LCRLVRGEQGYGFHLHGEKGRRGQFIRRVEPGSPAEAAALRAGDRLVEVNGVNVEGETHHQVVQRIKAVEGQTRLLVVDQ

As usually defined, the IC50 is the point on the concentration scale where inhibition reaches its midpoint. Read a high IC50 as a need for much substance. `CC(=O)N[C@@H](CS)C(=O)N[C@H](CCCNC(=N)N)C(=O)N[C@@H](CCCNC(=N)N)C(=O)N[C@@H](CCCNC(=N)N)C(=O)N[C@@H](Cc1ccc2ccccc2c1)C(=O)N[C@@H](Cc1c[nH]c2ccccc12)C(=O)N[C@@H](CCC(N)=O)C(=O)N[C@H](C(=O)N[C@H](C(=O)N[C@@H](CCCNC(=N)N)C(=O)N[C@H](C(=O)O)C(C)(C)C)[C@@H](C)O)C(C)(C)S` [Compound 20, Ac-Cys-(D-Arg)-Arg-Arg-(2-Nal)-Trp-Gln-Pen-Thr-Arg-Tle-OH] (Ac-C[dR]RR[2Nal]WQ[Pen]TR[Tle]-OH): the “Uptake (% rel.)” value in the data set with HeLa cells worked out at 28 ± 1%. Also, the Kd in data set [1] (setting [4]) was 110 nM; in data set [1] (FITC-labeled peptide 20, FP, read-out: KD for CAL PDZ domain (FIG. 3A)), approximately 50 nM; at NHERF2-PDZ2 (N2P2), 4970 ± 890 nM; at NHERF1-PDZ1 (N1P1) (setting [5]) it was 1640 ± 150 nM; at NHERF2-PDZ1 (N2P1), 2980 ± 150 nM. This molecule also gave an IC50 in data set [2] (Condition B (superscript b): 100 nM probe FAM-[…]-OH) of 165 nM.
With `CC(=O)N[C@@H](CS)C(=O)N[C@H](CCCNC(=N)N)C(=O)N[C@H](CCCNC(=N)N)C(=O)N[C@@H](CCCNC(=N)N)C(=O)N[C@@H](Cc1ccc2ccccc2c1)C(=O)N[C@@H](Cc1c[nH]c2ccccc12)C(=O)N[C@@H](CCC(N)=O)C(=O)N[C@H](C(=O)N[C@H](C(=O)N[C@@H](CCCNC(=N)N)C(=O)N[C@H](C(=O)O)C(C)(C)C)[C@@H](C)O)C(C)(C)S` [Compound 21, Ac-Cys-(D-Arg)-(D-Arg)-Arg-(2-Nal)-Trp-Gln-Pen-Thr-Arg-Tle-OH] (Ac-C[dR][dR]R[2Nal]WQ[Pen]TR[Tle]-OH), in the data set on HeLa cells, the “Uptake (% rel.)” value came out at 23 ± 4%. The same molecule returned an IC50 in data set [2] (setting [6]) of 270 nM.
On to `CC(=O)N[C@@H](CS)C(=O)N[C@H](CCCNC(=N)N)C(=O)N[C@@H](CCCNC(=N)N)C(=O)N[C@@H](CCCNC(=N)N)C(=O)N[C@@H](Cc1ccc2ccccc2c1)C(=O)N[C@@H](Cc1c[nH]c2ccccc12)C(=O)N[C@H](C(=O)N[C@H](C(=O)N[C@H](C(=O)N[C@@H](CCCNC(=N)N)C(=O)N[C@H](C(=O)O)C(C)(C)C)[C@@H](C)O)C(C)(C)C)C(C)(C)S` [Compound 24, Ac-Cys-(D-Arg)-Arg-Arg-(2-Nal)-Trp-Pen-Tle-Thr-Arg-Tle-OH] (Ac-C[dR]RR[2Nal]W[Pen][Tle]TR[Tle]-OH), for which, in the data set with HeLa cells, the “Uptake (% rel.)” value amounted to 92%. Also, in the data set on HeLa cells (relative to peptide 22), the “cell-permeability, fold higher” value came to 4 fold. Moreover, the IC50 in data set [2] (setting [6]) was determined as 380 nM. Moreover, in [2] (relative to peptide 22), the “decrease of CAL binding” value is recorded as approximately 2 fold.
As to `CC(=O)N[C@@H](CS)C(=O)N[C@H](CCCNC(=N)N)C(=O)N[C@@H](CCCNC(=N)N)C(=O)N[C@@H](CCCNC(=N)N)C(=O)N[C@@H](Cc1ccc2ccccc2c1)C(=O)N[C@@H](Cc1csc2ccccc12)C(=O)N1CCCC[C@H]1C(=O)N[C@H](C(=O)N[C@H](C(=O)N[C@@H](CCCNC(=N)N)C(=O)N[C@H](C(=O)O)C(C)(C)C)[C@@H](C)O)C(C)(C)S` [Compound 29, Ac-Cys-(D-Arg)-Arg-Arg-Nal-Bta-Pip-Pen-Thr-Arg-Tle-OH] (Ac-C[dR]RR[2Nal][Bta][Pip][Pen]TR[Tle]-OH), in the data set on HCT116 cell spheroids, the “presence of intact peptide in spheroids” value was “High concentrations”. In addition, the Kd in data set [1] (setting [4]) was 6 ± 3 nM; in [1] (setting [7]), 6 nM; at NHERF1-PDZ1 (N1P1) (range over N1P1, N2P1 and N2P2, read-out: KD values for NHERF1/2 PDZ domains), 780 to 7480 nM. Besides, the “improvement of CAL PDZ-binding affinity” value in [1] (Pip for Pro) is reported as approximately 15 fold. Further, in data set [1] (ratio of KD values, NHERF1/2 PDZ domains vs CAL PDZ), the “selectivity for CAL vs NHERF PDZ domains” value is given as not below 130 fold.
Take `C[C@@H](O)[C@H](NC(=O)[C@@H](NC(=O)[C@@H]1CCCCN1C(=O)[C@H](Cc1csc2ccccc12)NC(=O)[C@H](Cc1ccc2ccccc2c1)NC(=O)[C@H](CCCNC(=N)N)NC(=O)[C@H](CCCNC(=N)N)NC(=O)[C@@H](CCCNC(=N)N)NC(=O)[C@H](CS)NC(=O)COCCOCCNC(=S)Nc1ccc(C2c3ccc(O)cc3Oc3cc(O)ccc32)c(C(=O)O)c1)C(C)(C)S)C(=O)N[C@@H](CCCNC(=N)N)C(=O)N[C@H](C(=O)O)C(C)(C)C` [Compound 29-FITC, FITC-miniPEG-Cys-(D-Arg)-Arg-Arg-Nal-Bta-Pip-Pen-Thr-Arg-Tle-OH] ({X1-AEEA}-C[dR]RR[2Nal][Bta][Pip][Pen]TR[Tle]-OH): the Kd worked out at 6 ± 3 nM in data set [1] (setting [4]); 6 ± 3 nM in [1] (setting [7]); 7480 ± 580 nM at NHERF2-PDZ2 (N2P2); 780 ± 10 nM on NHERF1-PDZ1 (N1P1) (setting [5]); 1370 ± 380 nM on NHERF2-PDZ1 (N2P1).
As to `CC(C)(CO)c1cc2cc(NC(=O)C3(c4ccc5c(c4)OC(F)(F)O5)CC3)c(F)cc2n1C[C@@H](O)CO` [VX661, Tezacaftor, reference compound], in the data set with LC3-II, the LC3-II protein levels entry is “also effective”.
Regarding “Ac-Cys-(D-Arg)-Arg-Arg-Nal-Bta-Pip-Pen-Thr-Arg-Tle-OH”, the cleaved bond entry in data set [3] was “Thr-Arg”.
